Broadly, the IC50 is the midpoint of a concentration-inhibition curve.

Experimental findings from US20250018047A1, “METHODS AND COMPOSITIONS FOR TARGETED PROTEIN DEGRADATION” (Ranok Therapeutics (Hangzhou) Co. Ltd., priority 2021, published 2025) are described below.

One assay addresses T1, KRAS(G12D)/SOS1 (Homo sapiens, UniProt P01116, G12D).
T1 construct: purchased Cisbio 63ADK000CB16PEG
Put plainly: KRAS(G12D)/SOS1 homogeneous time-resolved fluorescence (HTRF) assay. It is filed as binding. Particulars: absence of GTP, 4° C. for 3 hr. The method, then: The test compound was mixed and incubated with reaction components, incubated in a sealed plate at 4° C. for 3 hr and fluorescence was measured using a PerkinElmer Envision plate reader.
For orientation: In TR-FRET formats the signal depends on donor and acceptor labels being close together.

Assay [1] has as its system A-427 human lung carcinoma. Briefly: CellTiter-Glo cancer cell line proliferation assay, A-427. Format: cell-based. Particulars: Homo sapiens, A-427, 24 hr, read-out: A427 at 24 hrs, IC50. The method, then: Cell lines were cultured according to ATCC and recommendations.
CellTiter-Glo® Reagent Cancer Cell Line Proliferation Assays
Cells were plated in 96-well tissue culture plates at 4,000 cells/well and incubated at 37° C./5% CO2 for 24 hr in 100 μl of media. […] Cells were then treated with test compounds at various concentrations with a final concentration of 0.5% DMSO/well, and then incubated at 37° C./5% CO2 for 24 hr. 100 μl of CellTiter-Glo® Reagent (Promega Corporation, Madison, WI) was added to each well and processed according manufacturer's protocol. Results were analyzed and IC50-values were calculated in GraphPad 7 software.
For orientation: ATP-based viability assays read luminescence as a measure of living cells.

Molecules are shown by their SMILES.

T1 sequence (P01116 1-188 isoform P01116-2 G12D): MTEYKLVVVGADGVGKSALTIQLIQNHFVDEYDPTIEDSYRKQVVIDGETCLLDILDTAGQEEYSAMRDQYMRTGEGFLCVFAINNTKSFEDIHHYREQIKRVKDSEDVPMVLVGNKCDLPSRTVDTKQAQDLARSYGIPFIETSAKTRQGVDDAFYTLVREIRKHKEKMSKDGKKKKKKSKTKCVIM

At KRAS(G12D)/SOS1, `C#Cc1c(F)ccc2cc(O)cc(-c3ncc4c(N5CC6CCC(C5)N6)nc(OCC5(CN6CC7(C6)CN(c6ccc8c(c6)CN(C6CCC(=O)NC6=O)C8=O)C7)CC5)nc4c3F)c12` (centres unmarked) [Compound 117] gave an IC50 of under 100 nM.

For the compound `O=C1CCC(N2C(=O)c3ccc(N4CCN(C(=O)C5CCN(CC6(COc7nc(N8CC9CCC(C8)N9)c8cnc(-c9cc(O)cc%10ccccc9%10)c(F)c8n7)CC6)CC5)CC4)cc3C2=O)C(=O)N1` (centres unmarked) [Compound 76], the IC50 is over 1000 nM in assay [1] and under 100 nM at KRAS(G12D)/SOS1.

Consider `Cc1cccc(-c2ncc3c(N4CC5CCC(C4)N5)nc(OCC4(CN5CCN(CC6CCN(c7ccc8c(c7)C(=O)N(C7CCC(=O)NC7=O)C8=O)CC6)CC5)CC4)nc3c2F)c1C` (centres unmarked) [Compound 63], for which the IC50 is over 1000 nM in assay [1] and under 100 nM against KRAS(G12D)/SOS1.

Compound `C#Cc1c(F)ccc2cc(O)cc(-c3ncc4c(N5CC6CCC(C5)N6)nc(OCC5(CN6CCC7(CC6)CCN(c6ccc8c(c6)CN(C6CCC(=O)NC6=O)C8=O)CC7)CC5)nc4c3F)c12` (centres unmarked) [Compound 114] came in with an IC50 on KRAS(G12D)/SOS1 of under 100 nM.

For `C#Cc1cccc2cc(O)cc(-c3ncc4c(N5CC6CCC(C5)N6)nc(OC[C@H]5CC[C@@H](CN6CCN(CC7CCN(c8ccc9c(c8)C(=O)N(C8CCC(=O)NC8=O)C9=O)CC7)CC6)N5C)nc4c3F)c12` (some centres unmarked) [Compound 68], the IC50 is over 1000 nM in assay [1] and under 100 nM against KRAS(G12D)/SOS1.

As for `CN1C[C@H](C2CCC(C(=O)NCCOc3ccc4c(c3)C(=O)N(C3CCC(=O)NC3=O)C4=O)CC2)C[C@@H]1COc1nc(N2CC3CCC(C2)N3)c2cnc(-c3cc(O)cc4ccccc34)c(F)c2n1` (some centres unmarked) [Compound 53], the IC50 is over 1000 nM in assay [1] and under 100 nM against KRAS(G12D)/SOS1.

Take `C#Cc1cccc2cccc(-c3ncc4c(N5CC6CCC(C5)N6)nc(OCC5(CN(C)CC6CCN(c7ccc8c(c7)C(=O)N(C7CCC(=O)NC7=O)C8=O)CC6)CC5)nc4c3F)c12` (centres unmarked) [Compound 67]: the IC50 was 100 to 1000 nM in assay [1] and under 100 nM at KRAS(G12D)/SOS1.

Regarding `C#Cc1c(F)ccc2cc(O)cc(-c3ncc4c(N5CC6CCC(C5)N6)nc(OCC5(CN6CCC7(CC6)CN(c6ccc8c(c6)CN(C6CCC(=O)NC6=O)C8=O)C7)CC5)nc4c3F)c12` (centres unmarked) [Compound 116], on KRAS(G12D)/SOS1, the IC50 was under 100 nM.

As for `CN1C[C@H](N2CCC(C(=O)Nc3ccc4c(c3)CN(C3CCC(=O)NC3=O)C4=O)CC2)C[C@@H]1COc1nc(N2CC3CCC(C2)N3)c2cnc(-c3cccc4cccc(Cl)c34)c(F)c2n1` (some centres unmarked) [Compound 49], the IC50 against KRAS(G12D)/SOS1 fell in the range of 100 to 1000 nM.

On to `CN1CC(N2CCC(C(=O)NCCOCCOc3ccc4c(c3)C(=O)N(C3CCC(=O)NC3=O)C4=O)CC2)C[C@@H]1COc1nc(N2CC3CCC(C2)N3)c2cnc(-c3cc(O)cc4ccccc34)c(F)c2n1` (some centres unmarked) [Compound 54], for which the IC50 is over 1000 nM in assay [1] and under 100 nM at KRAS(G12D)/SOS1.

Take `C#Cc1cccc2cc(O)cc(-c3ncc4c(N5CC6CCC(C5)N6)nc(OCC5(CN6CCN(Cc7ccc8c(c7)C(=O)N(C7CCC(=O)NC7=O)C8=O)CC6)CC5)nc4c3F)c12` (centres unmarked) [Compound 65]: the IC50 in assay [1] is over 1000 nM; at KRAS(G12D)/SOS1, under 100 nM.

For `Cc1cccc2cccc(-c3ncc4c(N5CC6CCC(C5)N6)nc(OCC5(CN6CCN(CC7CCN(c8ccc9c(c8)C(=O)N(C8CCC(=O)NC8=O)C9=O)CC7)CC6)CC5)nc4c3F)c12` (centres unmarked) [Compound 58], the IC50 at KRAS(G12D)/SOS1 is under 100 nM.

As for `C#Cc1cccc2cccc(-c3ncc4c(N5CC6CCC(C5)N6)nc(OC[C@H]5CC[C@@H](CN6CCN(CC7CCN(c8cc9c(cc8F)C(=O)N(C8CCC(=O)NC8=O)C9=O)CC7)CC6)N5C)nc4c3F)c12` (some centres unmarked) [Compound 55], the IC50 in assay [1] was over 1000 nM; against KRAS(G12D)/SOS1 it was under 100 nM.

As to `C#Cc1cccc2cccc(-c3ncc4c(N5CC6CCC(C5)N6)nc(OC[C@H]5CC[C@@H](CN6CCN(CCC7CCN(c8ccc9c(c8)C(=O)N(C8CCC(=O)NC8=O)C9=O)CC7)CC6)N5C)nc4c3F)c12` (some centres unmarked) [Compound 62], the IC50 in assay [1] was 100 to 1000 nM; on KRAS(G12D)/SOS1 it was under 100 nM.

At KRAS(G12D)/SOS1, `C#Cc1c(F)ccc2cc(O)cc(-c3ncc4c(N5CC6CCC(C5)N6)nc(OCC5(CN6CCC(CN7CCC(c8ccc(NC9CCC(=O)NC9=O)cc8)CC7)CC6)CC5)nc4c3F)c12` (centres unmarked) [Compound 113] displayed an IC50 of under 100 nM.

On to `COc1cc(-c2ncc3c(N4CC5CCC(C4)N5)nc(OCC4(CN5CCN(CC6CCN(c7ccc8c(c7)CN(C7CCC(=O)NC7=O)C8=O)CC6)CC5)CC4)nc3c2F)c2ccccc2c1` (centres unmarked) [Compound 70], for which the IC50 (in assay [1]; against KRAS(G12D)/SOS1) was over 1000 nM each time.

With `C#Cc1c(F)ccc2cc(O)cc(-c3nc(OC)c4c(N5CC6CCC(C5)N6)nc(OCC5(CN6CCN(C7CCN(c8ccc9c(c8)C(=O)N(C8CCC(=O)NC8=O)C9=O)CC7)CC6)CC5)nc4c3F)c12` (centres unmarked) [Compound 115], the IC50 against KRAS(G12D)/SOS1 is under 100 nM.

Turning to `O=C1CCC(N2Cc3cc(N4CCC(CN5CCN(CC6(COc7nc(N8CC9CCC(C8)N9)c8cnc(-c9cc(O)cc%10ccccc9%10)c(F)c8n7)CC6)CC5)CC4)ccc3C2=O)C(=O)N1` (centres unmarked) [Compound 52], the IC50 in assay [1] was 100 to 1000 nM; against KRAS(G12D)/SOS1, under 100 nM.

As for `C#Cc1c(F)ccc2cc(O)cc(-c3ncc4c(N5CC6CCC(C5)N6C(=O)CC#N)nc(OCC5(CN6CCN(CC7CCN(c8ccc9c(c8)CN(C8CCC(=O)NC8=O)C9=O)CC7)CC6)CC5)nc4c3F)c12` (centres unmarked) [Compound 110], the IC50 at KRAS(G12D)/SOS1 was under 100 nM.

As to `C#Cc1cccc2cc(O)cc(-c3ncc4c(N5CC6CCC(C5)N6)nc(OC[C@H]5CC[C@@H](CN6CCN(CC7CCN(c8ccc9c(c8)CN(C8CCC(=O)NC8=O)C9=O)CC7)CC6)N5C)nc4c3F)c12` (some centres unmarked) [Compound 69], the IC50 in assay [1] is over 1000 nM; against KRAS(G12D)/SOS1, under 100 nM.

In turn, `C#Cc1c(F)ccc2cc(O)cc(-c3ncc4c(N5CC6CCC(C5)N6C(=O)C(F)(F)F)nc(OCC5(CN6CCN(CC7CCN(c8ccc9c(c8)CN(C8CCC(=O)NC8=O)C9=O)CC7)CC6)CC5)nc4c3F)c12` (centres unmarked) [Compound 108] had an IC50 against KRAS(G12D)/SOS1 of under 100 nM.

As to `C#Cc1cccc2cc(O)cc(-c3ncc4c(N5CC6CCC(C5)N6)nc(OCC5(CN6CCN(Cc7ccc8c(c7)CN(C7CCC(=O)NC7=O)C8=O)CC6)CC5)nc4c3F)c12` (centres unmarked) [Compound 61], the IC50 is 100 to 1000 nM in assay [1] and under 100 nM against KRAS(G12D)/SOS1.

As for `C#Cc1c(F)ccc2cc(O)cc(-c3ncc4c(N5CC6CCC(C5)N6)nc(OCC5(CN6CCN(Cc7ccc8c(c7)C(=O)N(C7CCC(=O)NC7=O)C8=O)CC6)CC5)nc4c3F)c12` (centres unmarked) [Compound 64], the IC50 in assay [1] is over 1000 nM; at KRAS(G12D)/SOS1, under 100 nM.

In the case of `C#Cc1cccc2cccc(-c3ncc4c(N5CC6CCC(C5)N6)nc(OC[C@H]5C[C@@H](N6CCN(CCC7CCN(c8ccc9c(c8)C(=O)N(C8CCC(=O)NC8=O)C9=O)CC7)CC6)CN5C)nc4c3F)c12` (some centres unmarked) [Compound 74], the values for the IC50 (in assay [1]; on KRAS(G12D)/SOS1) were over 1000 nM and under 100 nM, respectively.

As to `CN(CC1CCN(c2ccc3c(c2)C(=O)N(C2CCC(=O)NC2=O)C3=O)CC1)CC1(COc2nc(N3CC4CCC(C3)N4)c3cnc(-c4cc(O)cc5ccccc45)c(F)c3n2)CC1` (centres unmarked) [Compound 75], the IC50 in assay [1] was over 1000 nM; against KRAS(G12D)/SOS1, under 100 nM.

For the compound `C#Cc1c(F)ccc2cc(O)cc(-c3ncc4c(N5CCN(C(=O)C=C)[C@@H](CC#N)C5)nc(OCC5(CN6CCN(CC7CCN(c8ccc9c(c8)CN(C8CCC(=O)NC8=O)C9=O)CC7)CC6)CC5)nc4c3F)c12` (some centres unmarked) [Compound 109], the IC50 against KRAS(G12D)/SOS1 is under 100 nM.

Consider `CN1[C@@H](COc2nc(N3CC4CCC(C3)N4)c3cnc(-c4cc(O)cc5ccccc45)c(F)c3n2)CC[C@H]1CN1CCN(CC2CCN(c3ccc4c(c3)C(=O)N(C3CCC(=O)NC3=O)C4=O)CC2)CC1` (some centres unmarked) [Compound 60], for which the IC50 in assay [1] is over 1000 nM; against KRAS(G12D)/SOS1 it was under 100 nM.
